{
  "source": "patent US8287889B2",
  "about": "(Wuhan Liyuanheng Pharmaceutical Technology Ltd., priority 2002, dated 2012)",
  "key": {"Kunming mice": {"system": "Kunming mice", "conditions": "10 mice", "experimental": "The mice were provided by Medical school of Tongji University and with a batch No. 19-052.\nCommonly, the lethality of the mice was regarded as positive index. After the death mice of each group were recorded and calculated and a LD50 value was calculated according to the Bliss statistical method."}, "[1]": {"system": "intestinal cancer cell (HT-29)", "experiment": "In vitro inhibition of intestinal cancer cell, time course", "format": "cell-based", "experimental": "(§1) The relation between administering period and curable effect was intensely observed. That is to say, the inhibiting rate would be recorded according to different administering time of the medicine, such as 2, 3, 4 days administration. It is discovered that administered raw medicine of low concentration, such as 0.1 μg, 0.5 μg, 2 μg/ml, had weak inhibiting effects towards three different cancer cells. As the administering period is extended, the inhibiting effect would gradually be strengthened. […] The extension of administering period could not promptly increase the inhibiting effect. […] In short, for HT-29, A549, and Hep-G2, the maximum inhibiting effect occurred mostly at the fourth administering day, therefore illustrating a better slow-release effect of such medicine."}, "lung cancer cell (A549)": {"system": "lung cancer cell (A549)", "experiment": "In vitro inhibition of lung cancer cell, time course", "format": "cell-based", "experimental": "as §1"}, "[2]": {"system": "liver cancer cell (Hep-G2)", "experiment": "In vitro inhibition of liver cancer cell, time course", "format": "cell-based", "experimental": "as §1"}, "[3]": {"conditions": "administering dosage 2250, intravenous"}, "[4]": {"conditions": "administering dosage 3713, intravenous"}, "[5]": {"conditions": "administering dosage 6126, intravenous"}, "[6]": {"conditions": "administering dosage 10108, intravenous"}, "[7]": {"conditions": "administering dosage 16678, intravenous"}},
  "note": "Where two headings read alike, the source gives them in different places.",
  "data": [
    {"smiles": "C[C@H]1[C@H](C)CC[C@]2(C(=O)O)CC[C@]3(C)C(=CC[C@@H]4[C@@]5(C)CC[C@H](O)C(C)(C)[C@@H]5CC[C@]43C)[C@H]12", "note": "[Ursolic Acid for Injection, ursolic acid]", "values": [
      {"measurement": "Death number (r)", "setting": "Kunming mice; [3]", "value": 0},
      {"measurement": "Lethal rate(%)", "setting": "Kunming mice; [3]", "value": 0, "unit": "%"},
      {"measurement": "Probability unit (y)", "setting": "Kunming mice; [3]", "value": 0},
      {"measurement": "Death number (r)", "setting": "Kunming mice; [4]", "value": 1},
      {"measurement": "Lethal rate(%)", "setting": "Kunming mice; [4]", "value": 10, "unit": "%"},
      {"measurement": "Probability unit (y)", "setting": "Kunming mice; [4]", "value": 3.72},
      {"measurement": "Death number (r)", "setting": "Kunming mice; [5]", "value": 3},
      {"measurement": "Lethal rate(%)", "setting": "Kunming mice; [5]", "value": 30, "unit": "%"},
      {"measurement": "Probability unit (y)", "setting": "Kunming mice; [5]", "value": 4.48},
      {"measurement": "Death number (r)", "setting": "Kunming mice; [6]", "value": 6},
      {"measurement": "Lethal rate(%)", "setting": "Kunming mice; [6]", "value": 60, "unit": "%"},
      {"measurement": "Probability unit (y)", "setting": "Kunming mice; [6]", "value": 5.25},
      {"measurement": "Death number (r)", "setting": "Kunming mice; [7]", "value": 10},
      {"measurement": "Lethal rate(%)", "setting": "Kunming mice; [7]", "value": 100, "unit": "%"},
      {"measurement": "peak inhibiting effect", "setting": "[1]; HT-29, 10, 50 μg/ml, third day of administration", "value": 95, "unit": "%"},
      {"measurement": "inhibiting effect", "setting": "[1]; HT-29, high concentration 10, 50 μg/ml", "value": "strong"},
      {"measurement": "inhibiting effect", "setting": "[1]; HT-29, low concentration 0.1 μg, 0.5 μg, 2 μg/ml", "value": "weak"},
      {"measurement": "peak inhibiting effect", "setting": "lung cancer cell (A549); A549, 10, 50 μg/ml, third day of administration", "value": 95, "unit": "%"},
      {"measurement": "inhibiting effect", "setting": "lung cancer cell (A549); A549, high concentration 10, 50 μg/ml", "value": "strong"},
      {"measurement": "inhibiting effect", "setting": "lung cancer cell (A549); A549, low concentration 0.1 μg, 0.5 μg, 2 μg/ml", "value": "weak"},
      {"measurement": "peak inhibiting effect", "setting": "[2]; Hep-G2, 10, 50 μg/ml, third day of administration", "value": 95, "unit": "%"},
      {"measurement": "inhibiting effect", "setting": "[2]; Hep-G2, high concentration 10, 50 μg/ml", "value": "strong"},
      {"measurement": "inhibiting effect", "setting": "[2]; Hep-G2, low concentration 0.1 μg, 0.5 μg, 2 μg/ml", "value": "weak"}
    ]}
  ]
}
